Where a name gives a salt, the structure may show the parent alone.
Legend:
ErbB2 = target: T1, ErbB2 (Homo sapiens, UniProt P04626); test: ErbB-2 substrate phosphorylation assay (HTRF); assay type: biochemical; conditions: Method (A): Enzyme Mix incubated with compound at 20° C. for 1 hr, reaction started by adding Substrate Mix
T1 construct: made in house; host or cells: baculovirus expression system
How it was run: (§1)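 Baculovirus-expressed kinase (0.8 nM EGFR or 10 nM ErbB2 in enzyme mix) with Peptide C 0.8 μM and ATP 20 μM (substrate-mix levels), MOPS pH 7.5, MnCl2; 90 min, 20 °C, HTRF anti-phosphotyrosine. Method A adds 1 h enzyme–compound preincubation; B none. pIC50, final compound 0.00027–47.6 μM.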

HN5 tumor cells = test: Method B: CellTiter-Glo Growth Inhibition Assay, HN5; assay type: cell-based; conditions: Homo sapiens, 72 h, 3 days
Procedure: (§2) Human breast tumor cells (BT474) were cultured in RPMI, (Invitrogen, 22400) containing 10% fetal bovine serum (FBS). Human head and neck tumor cells (HN5) were cultured in low glucose DMEM (Invitrogen, 12320) containing 10% FBS. Human colon tumor cells (Colo205) were cultured in DMEM (Invitrogen, 10564) containing 10% FBS. Human melanoma cancer cells (SK-MEL-28) were incubated in DMEM (Invitrogen). All cell lines were maintained at 37° C. in a humidified 5% CO2, 95% air incubator. Cells were harvested using trypsin/EDTA, counted using a haemocytometer, and plated in 30 μL of the appropriate media described above, at the following densities, in a half-area, black-walled, 96-well tissue culture plate (Corning 3882): BT474 3,000 cells/well, HN5 500 cells/well, Colo205 3,000 cells/well, and SK-MEL-28 500 cells/well). The next day, compounds were diluted in DMEM containing […] gentamicin, from 10 mM stock solutions in DMSO. 30 μL/well of these dilutions were added to the 30 μL/well of media currently on the cell plates. Medium containing 0.6% DMSO was added to control wells. The final concentration of DMSO in all wells was 0.3%. Cells were incubated at 37° C., 5% CO2 for 3 days. Cell biomass was estimated using CellTiter-Glo® reagent (Promega G7571). Briefly, plates were removed from the incubator and allowed to equilibrate to rt for 30 minutes. 25-60 μL of CellTiter-Glo® reagent were added to each well of the treated cells and plates were shaken on an orbital plate shaker for 2 mins. Plates were incubated without shaking for 30 more mins and read in a luminometer with an integration time of 0.5 seconds per well. Percent inhibition of cell growth was calculated relative to vehicle-treated control wells. Concentration of compound that inhibits 50% of vehicle control cell growth (IC50) was interpolated using nonlinear regression (Levenberg-Marquardt) and the equation, y=V max*(1−(x/(K+x)))+Y2, where “K” was equal to the IC50.

Colo205 tumor cells = test: Method B: CellTiter-Glo Growth Inhibition Assay, Colo205; assay type: cell-based; conditions: Homo sapiens, COLO 205, 72 h, 3 days
Procedure: as §2

EGFR = target: T2, EGFR (Homo sapiens, UniProt P00533); test: EGFR substrate phosphorylation assay (HTRF); assay type: biochemical; conditions: Method (A): Enzyme Mix incubated with compound at 20° C. for 1 hr, reaction started by adding Substrate Mix
T2 construct: made in house; host or cells: baculovirus expression system
T2 sequence (P00533 25-1210): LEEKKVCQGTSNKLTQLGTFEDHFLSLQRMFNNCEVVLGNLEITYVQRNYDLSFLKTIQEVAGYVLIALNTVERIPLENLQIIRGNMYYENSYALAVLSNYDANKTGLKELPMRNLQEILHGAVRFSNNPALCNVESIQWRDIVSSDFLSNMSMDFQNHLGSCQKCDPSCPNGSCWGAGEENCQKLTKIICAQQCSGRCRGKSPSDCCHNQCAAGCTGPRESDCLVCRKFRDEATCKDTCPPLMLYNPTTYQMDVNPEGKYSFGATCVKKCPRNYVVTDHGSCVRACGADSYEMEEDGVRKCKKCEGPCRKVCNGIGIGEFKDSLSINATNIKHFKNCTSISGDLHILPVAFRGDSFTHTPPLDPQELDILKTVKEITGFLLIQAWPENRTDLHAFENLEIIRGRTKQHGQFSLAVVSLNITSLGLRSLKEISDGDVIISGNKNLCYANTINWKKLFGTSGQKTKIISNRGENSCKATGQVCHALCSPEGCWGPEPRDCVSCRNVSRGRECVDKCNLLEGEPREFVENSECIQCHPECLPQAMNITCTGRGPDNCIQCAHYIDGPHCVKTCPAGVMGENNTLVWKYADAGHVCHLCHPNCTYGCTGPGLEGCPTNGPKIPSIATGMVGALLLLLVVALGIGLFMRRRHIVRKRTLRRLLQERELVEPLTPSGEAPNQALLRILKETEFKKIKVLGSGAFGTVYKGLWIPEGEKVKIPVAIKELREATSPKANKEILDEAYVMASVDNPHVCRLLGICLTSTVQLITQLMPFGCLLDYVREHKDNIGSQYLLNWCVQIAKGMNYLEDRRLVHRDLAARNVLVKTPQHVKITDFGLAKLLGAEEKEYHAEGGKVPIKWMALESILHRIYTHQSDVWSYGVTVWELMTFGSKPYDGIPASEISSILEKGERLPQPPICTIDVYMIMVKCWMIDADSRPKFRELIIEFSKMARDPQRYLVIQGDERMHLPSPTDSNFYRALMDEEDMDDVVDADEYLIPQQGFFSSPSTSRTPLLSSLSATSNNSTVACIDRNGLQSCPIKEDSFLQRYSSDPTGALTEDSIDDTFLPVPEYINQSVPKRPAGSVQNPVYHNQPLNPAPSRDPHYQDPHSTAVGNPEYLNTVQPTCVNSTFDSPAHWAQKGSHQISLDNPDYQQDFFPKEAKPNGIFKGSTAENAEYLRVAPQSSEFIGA
How it was run: as §1

BT474 tumor cells = test: Method B: CellTiter-Glo Growth Inhibition Assay, BT474; assay type: cell-based; conditions: Homo sapiens, BT-474, 72 h, 3 days
Procedure: as §2

T1 sequence (P04626 23-1255): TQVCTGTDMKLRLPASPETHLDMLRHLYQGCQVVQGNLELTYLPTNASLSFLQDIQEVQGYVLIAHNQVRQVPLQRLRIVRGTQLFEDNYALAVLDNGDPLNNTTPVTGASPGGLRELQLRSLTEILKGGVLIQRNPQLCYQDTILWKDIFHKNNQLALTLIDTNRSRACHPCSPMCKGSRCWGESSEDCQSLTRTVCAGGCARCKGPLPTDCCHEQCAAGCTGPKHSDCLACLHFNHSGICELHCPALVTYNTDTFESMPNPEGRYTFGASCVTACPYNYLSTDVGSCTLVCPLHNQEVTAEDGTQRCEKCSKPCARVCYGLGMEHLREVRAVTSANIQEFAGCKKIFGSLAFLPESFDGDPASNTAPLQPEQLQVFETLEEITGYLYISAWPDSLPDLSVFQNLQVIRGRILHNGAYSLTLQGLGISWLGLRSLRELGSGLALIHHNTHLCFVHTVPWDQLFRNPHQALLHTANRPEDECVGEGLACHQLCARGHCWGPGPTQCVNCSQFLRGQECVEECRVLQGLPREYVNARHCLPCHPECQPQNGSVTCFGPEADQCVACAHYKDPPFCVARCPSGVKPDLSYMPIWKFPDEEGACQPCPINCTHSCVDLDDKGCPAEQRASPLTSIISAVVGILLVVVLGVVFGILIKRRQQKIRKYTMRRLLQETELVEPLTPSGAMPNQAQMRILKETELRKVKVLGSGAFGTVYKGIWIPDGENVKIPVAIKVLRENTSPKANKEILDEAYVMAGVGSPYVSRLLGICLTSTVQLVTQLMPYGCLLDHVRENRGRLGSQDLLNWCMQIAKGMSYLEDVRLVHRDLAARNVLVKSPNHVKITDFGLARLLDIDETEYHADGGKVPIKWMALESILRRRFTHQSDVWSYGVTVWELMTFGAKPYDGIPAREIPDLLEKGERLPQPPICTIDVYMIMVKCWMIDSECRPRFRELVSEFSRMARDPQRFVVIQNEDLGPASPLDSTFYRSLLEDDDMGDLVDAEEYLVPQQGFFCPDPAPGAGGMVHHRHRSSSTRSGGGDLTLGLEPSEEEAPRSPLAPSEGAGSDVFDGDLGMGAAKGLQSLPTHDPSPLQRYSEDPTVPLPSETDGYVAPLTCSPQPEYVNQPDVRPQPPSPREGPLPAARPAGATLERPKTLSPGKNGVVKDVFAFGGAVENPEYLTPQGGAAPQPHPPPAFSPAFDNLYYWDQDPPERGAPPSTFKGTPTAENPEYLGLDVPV

SMILES | IC50 (ErbB2) | IC50 (HN5 tumor cells) | IC50 (Colo205 tumor cells) | IC50 (EGFR) | IC50 (BT474 tumor cells)
CN(C)Cc1cccc(Nc2nccc(-c3scnc3-c3cccc(NC(=O)Cc4cccs4)c3)n2)c1 [Example 81] | < 0.1 µM | 0.1 to 1 µM | 0.1 to 1 µM | < 0.1 µM | 0.1 to 1 µM
CCN(CC)CCOc1cccc(Nc2nccc(-c3scnc3-c3cccc(NC(=O)c4c(F)cccc4F)c3)n2)c1 [Example 92, N-[3-(5-{2-[(3-{[2-(Diethylamino)ethyl]oxy}phenyl)amino]-4-pyrimidinyl}-1,3-thiazol-4-yl)phenyl]-2,6-difluorobenzamide-formic acid] | < 0.1 µM | < 0.1 µM | 0.1 to 1 µM | < 0.1 µM | < 0.1 µM
O=C1COc2ccc(Nc3nccc(-c4scnc4-c4cccc(NC(=O)c5cc(F)ccc5F)c4)n3)cc2N1 [Example 99, 2,5-Difluoro-N-[3-(5-{2-[(3-oxo-3,4-dihydro-2H-1,4-benzoxaziN-6-yl)amino]-4-pyrimidinyl}-1,3-thiazol-4-yl)phenyl]benzamide hydrochloride] | < 0.1 µM | 0.1 to 1 µM | > 1 µM | < 0.1 µM | 0.1 to 1 µM
O=C(Cc1cccs1)Nc1cccc(-c2ncsc2-c2ccnc(Nc3ccc4c(c3)OCC(=O)N4)n2)c1 [Example 85, N-[3-(5-{2-[(3-Oxo-3,4-dihydro-2H-1,4-benzoxazin-7-yl)amino]-4-pyrimidinyl}-1,3-thiazol-4-yl)phenyl]-2-(2-thienyl)acetamide hydrochloride] | < 0.1 µM | 0.1 to 1 µM | > 1 µM | < 0.1 µM | 0.1 to 1 µM
O=C(Nc1cccc(-c2nc(NCCCN3CCOCC3)sc2-c2ccnc(Nc3cccc(F)c3)n2)c1)c1c(F)cccc1F [Example 30, 2,6-Difluoro-N-[3-(5-{2-[(3-fluorophenyl)amino]-4-pyrimidinyl}-2-{[3-(4-morpholinyl)propyl]amino}-1,3-thiazol-4-yl)phenyl]benzamide] | < 0.1 µM | 0.1 to 1 µM | > 1 µM | < 0.1 µM | 0.1 to 1 µM
CN(C)CCOc1ccc(Nc2nccc(-c3scnc3-c3cccc(NC(=O)c4c(F)cccc4F)c3)n2)cc1Cl [Example 89] | < 0.1 µM | < 0.1 µM | 0.1 to 1 µM | < 0.1 µM | < 0.1 µM
CN(C)C1Cc2ccc(Nc3nccc(-c4scnc4-c4cccc(NC(=O)Cc5cccs5)c4)n3)cc2C1 (centres unmarked) [Example 83, N-{3-[5-(2-{[2-(Dimethylamino)-2,3-dihydro-1H-inden-5-yl]amino}-4-pyrimidinyl)-1,3-thiazol-4-yl]phenyl}-2-(2-thienyl)acetamide] | < 0.1 µM | 0.1 to 1 µM | 0.1 to 1 µM | < 0.1 µM | < 0.1 µM
Cc1nc(-c2cccc(NC(=O)c3c(F)cccc3F)c2)c(-c2ccnc(Nc3cccc(F)c3)n2)s1 [Example 101, 2,6-Difluoro-N-[3-(5-{2-[(3-fluorophenyl)amino]-4-pyrimidinyl}-2-methyl-1,3-thiazol-4-yl)phenyl]benzamide] | < 0.1 µM | < 0.1 µM | > 1 µM | < 0.1 µM | < 0.1 µM
O=C(Cc1cccs1)Nc1cccc(-c2ncsc2-c2ccnc(Nc3ccc4c(c3)NC(=O)CO4)n2)c1 [Example 86, N-[3-(5-{2-[(3-Oxo-3,4-dihydro-2H-1,4-benzoxaziN-6-yl)amino]-4-pyrimidinyl}-1,3-thiazol-4-yl)phenyl]-2-(2-thienyl)acetamide hydrochloride] | 0.1 to 1 µM | 0.1 to 1 µM | 0.1 to 1 µM | < 0.1 µM | 0.1 to 1 µM
Cc1nc(-c2cccc(NC(=O)Cc3cccs3)c2)c(-c2ccnc(Nc3cccc(F)c3)n2)s1 [Example 138, N-[3-(5-{2-[(3-Fluorophenyl)amino]-4-pyrimidinyl}-2-methyl-1,3-thiazol-4-yl)phenyl]-2-(2-thienyl)acetamide] | > 1 µM | > 1 µM | > 1 µM | 0.1 to 1 µM | > 1 µM
